Test results as given in US9447066B2, “Salts and crystal forms” (AskAt Inc., priority 2012, dated 2016).
Entries after “also recorded” stand apart in the source; their conditions may differ. Like-named read-outs stand apart in the source and are kept apart here.

Experiments:
[1] = Intrinsic dissolution experiments; type: physicochemical; settings: for intrinsic dissolution rate, comparison in words: pH 6.8 buffer and water; for time to plateau / complete dissolution of tablet: pH 6.8 buffer (neutral media)
Procedure: Intrinsic dissolution experiments were performed on the free acid, the meglumine salt, and the potassium salt. The measurements were carried out in pH 6.8 (0.05 M) phosphate buffer and water.
The press used for tablet preparation for intrinsic dissolution rate measurements was a mini-IDR compression system (pION/Heath Scientific). Approximately 11 mg of material was pressed in the cylindrical hole of a passivated stainless steel die, to a uniform, flat surface, with an exposed area of 0.072 cm^2. The pressure applied was approximately 50 bar for 3-5 min. The sample die was inserted in a cylindrical Teflon rotating disk carrier containing an embedded magnetic stirring bar at its base. The die/stirrer assembly was placed in a flat bottomed glass vial, ready for dissolution analysis.
The dissolution rate was measured in 20 ml of solvent (medium) and the path length of the UV meter was 2 mm. Applied stirring speed during measurement was 100 rpm. Measurements were performed at 20° C.

[2] = In vivo pharmacokinetic study in Beagle dogs; settings: male Beagle dogs; for AUC(0-t): read-out: AUC0-24h; for time-course of mean plasma concentration in comparison with API: oral capsule, FIG. 10
Procedure: In vivo pharmacokinetic study was carried out in Beagle dogs.
Male Beagle dogs were given single oral dose of the test articles by gelatin capsule formulation at a dose of 5 mg/kg. The actual weight of the test articles in the gelatin capsule to be administered to each animal was calculated based on the body weight measured just before the administration.
Following dosing, blood was collected from the external jugular vein of animals at 0, 0.25, 0.5, 1, 2, 4, 6, 8, 12, 24, 48, 72, 96, 120, 144, 168, […], 288, and 360 hour after administration. Approximately 1 mL of blood will be collected into tubes containing heparin-Na.
On the day of administration, food was given to the animals after 6-hour blood sampling.
The drug concentrations in dog plasma were determined with the validated bioanalytical assay procedures. PK parameters were determined with non-compartmental analysis.

[3] = Solid-state stability at 40° C. and 75% relative humidity; type: physicochemical; settings: 75% RH, 1 to 4 weeks
Procedure: The solid-state stabilities were assessed as follows: HPLC vials, containing approximately 5 mg of material, were placed in the climate chamber at 40° C. and 75% relative humidity. The samples were analyzed by XRPD and HPLC (both purity and chiral) at time points of 1, 2, 3 and 4 weeks. For each week a separate vial was prepared.

[4] = Quantitative Solubility Assessment; type: physicochemical; settings: pH 6.8 phosphate buffer (0.05 M) and water, thermodynamic from solid; neutral to basic environment
Procedure: Quantitative Solubility Assessment were performed on the free acid, the meglumine salt, and the potassium salt. The measurements were carried out in pH 6.8 phosphate buffer (0.05M) and water.
A standard 1.8 ml screw cap vial was charged with the material, each solvent (medium) and a magnetic stirring bar. The vials were subsequently closed and equilibrated at the ambient temperature for 24 h while stirring.
The liquid part was retrieved with a syringe and filtrated (0.5 micron filter); the isolated mother liquors were diluted to two dilutions selected according to the calibration curve. Quantities of the API in the diluted solutions were determined via HPLC analysis (DAD). The calibration curve was obtained from two independently prepared stock solutions of the API in 50% water/50% acetonitrile.

[5] = DVS analysis (moisture sorption); type: physicochemical
Procedure: Moisture sorption isotherms of small samples were obtained using a DVS-1 system from Surface Measurement Systems (London, UK) with an accuracy of 0.1 μg. The relative humidity cycled between 45 and 95% RH (sorption), 95 to 0% RH (desorption) and 0 to 45% (sorption) at a constant temperature of 25° C. with a hold time of 60 minutes per step (10% relative humidity step). At the end of the DVS experiment the sample was measured by XRPD.
The XRPD pattern of the sample after DVS measurement was not changed.

[6] = Variable temperature XRPD (VT-XRPD); type: physicochemical; settings: 25° C. to 160° C. and back to 25° C.
Procedure: (§1) For variable humidity and temperature experiment the ANSYCO HT chamber was used. The material was placed on a fixed sample holder that was mounted inside the chamber. The humidity was applied locally and varied from 10 to 80% (dew point). The temperature variation rate was 10° C./min.
Variable temperature XRPD (VT-XRPD) measurements of the meglumine salt were performed under the temperature of 25° C. to 160° C. (heating) and thereafter decreased to 25° C. (cooling).

[7] = Slurry experiments (physical stability in solvents); type: physicochemical; settings: ethanol, ethyl acetate, n-heptane; 25° C.; 2 weeks
Procedure: The slurry experiments of the meglumine salt were performed; the materials (15-30 mg) were weighed into 1.8 ml vials, charged with a stirring bar and the solvent (ethanol, ethyl acetate and n-heptane) and the slurries were placed at 25° C. under stirring. After two weeks, the slurries were subject to centrifugation and the liquid was removed with a pipette. The solids were sampled “wet” for XRPD. Subsequently the remaining solids dried under 200 mbar at room temperature for 5 days and all solids were analyzed as “dry” by XRPD.

[8] = Variable humidity XRPD (VH-XRPD); type: physicochemical; settings: 60 to 80% RH, 80 to 10% RH, 10 to 50% RH
Procedure: as §1
Variable humidity XRPD (VH-XRPD) measurements of the meglumine salt were performed under the humidity of 60 to 80% RH (1st sorption), 80 to 10% RH (desorption) and 10 to 50% (2nd sorption).

[9] = pH 6.8 (0.05 M) phosphate buffer, 20° C., 100 rpm
[10] = dog, plasma, single oral dose 5 mg/kg, gelatin capsule
[11] = dog, plasma, single oral dose 5 mg/kg, gelatin capsule, read-out: Cmax
[12] = single oral dose 5 mg/kg, gelatin capsule

Molecule: CC(C)(C)c1cc2c(cc1Cl)C=C(C(=O)O)[C@@H](C(F)(F)F)O2 [Compound A, (S)-6-chloro-7-(1,1-dimethylethyl)-2-trifluoromethyl-2H-1-benzopyran-3-carboxylic acid]
- concentration after one hour [1, 9]: 27000 ng/mL
- intrinsic dissolution rate, comparison in words [1]: very limited dissolution
- concentration after one hour ([1]; water, 20° C., 100 rpm): about 1 μg/ml
- AUC(0-t) [2, 10]: 287 µg·h/mL
- Cmax [2, 11]: 19700 ng/mL

Molecule: CC(C)(C)c1cc2c(cc1Cl)C=C(C(=O)[O-])[C@@H](C(F)(F)F)O2.[K+] [potassium salt, (S)-6-chloro-7-(1,1-dimethylethyl)-2-trifluoromethyl-2H-1-benzopyran-3-carboxylic acid potassium salt]
- chemical purity after solid-state stability test [3]: ≥ 99.9%
- enantiomeric purity after solid-state stability test [3]: ≥ 99.9%
- plateau concentration (dissolution of complete tablet) [1, 9]: 370 µg/mL
- time to plateau / complete dissolution of tablet ([1]; 20° C.): ≤ 15 min
- intrinsic dissolution rate, comparison in words ([1]; potassium salt): much better than the free acid; also recorded: dissolved the fastest in all cases
- time to complete dissolution of tablet ([1]; water, 20° C.): ≤ 5 min
- final concentration (complete tablet dissolved) ([1]; water, 20° C., 100 rpm): 400 µg/mL
- solubility at 24 h [4]: > 120 mg/mL
- AUC(0-t) [2, 10]: 436 µg·h/mL
- Cmax [2, 11]: 28200 ng/mL
- time-course of mean plasma concentration in comparison with API [2]: rapidly increased

Molecule: (S)-6-chloro-7-(1,1-dimethylethyl)-2-trifluoromethyl-2H-1-benzopyran-3-carboxylic acid meglumine salt
- physical and chemical stability (XRPD, HPLC) [3]: remained physically and chemically stable
- plateau concentration (dissolution of complete tablet) [1, 9]: about 250 μg/ml
- time to plateau / complete dissolution of tablet ([1]; 20° C.): 45 min
- intrinsic dissolution rate, comparison in words [1]: much better than the free acid
- concentration reached in the first 9 min ([1]; water, 20° C., 100 rpm): about 210 μg/ml
- final concentration (complete tablet dissolved) ([1]; water, 20° C., 100 rpm): 250 µg/mL
- maximum water uptake ([5]; DVS, at 95% RH, 25° C.): 2.0%
- XRPD pattern of the sample after DVS measurement ([5]; after DVS cycle): not changed
- time-course of mean plasma concentration in comparison with API [2]: rapidly increased
- AUC0-24h [2, 12]: 381,000 ng · hr/mL
- Cmax [2, 12]: 28,200 ng/mL
- crystal form through heating-cooling cycle (VT-XRPD) [6]: remained unchanged
- physical stability of wet and dry solids in slurry (XRPD) [7]: physically stable
- crystal form through sorption-desorption-sorption cycle (VH-XRPD) [8]: remained unchanged
